Test results: PubChem BioAssay (NCI)
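Compound exposure: 48 hours, 5 concentrations, 96-well plates. TGI is the concentration that stops growth completely.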

How the values were obtained:
Test in all cases: NCI anticancer screen, dose series, 48 h
KM12 colon = system: KM12 colon
UACC-257 melanoma = system: UACC-257 melanoma
EKVX NSCLC = system: EKVX NSCLC
SNB-19 CNS = system: SNB-19 CNS
CCRF-CEM leukemia = system: CCRF-CEM leukemia
A549 NSCLC = system: A549 NSCLC
OVCAR-5 ovarian = system: OVCAR-5 ovarian
HL-60(TB) leukemia = system: HL-60(TB) leukemia
NCI-H460 lung = system: NCI-H460 lung
COLO 205 colon = system: COLO 205 colon
NCI-H522 lung = system: NCI-H522 lung
HCC-2998 colon = system: HCC-2998 colon
NCI-H226 lung = system: NCI-H226 lung
MCF7 breast = system: MCF7 breast
U251 CNS = system: U251 CNS
CAKI-1 renal = system: CAKI-1 renal
MDA-N = system: MDA-N
ACHN renal = system: ACHN renal
DU-145 prostate = system: DU-145 prostate

## C=CC12CN(C)C3C4COC(CC41)C1(C(=O)Nc4ccccc41)C32 (stereo not drawn)
KM12 colon
  TGI: > 200 µM
UACC-257 melanoma
  TGI: > 200 µM
EKVX NSCLC
  TGI: > 200 µM
SNB-19 CNS
  TGI: > 200 µM
CCRF-CEM leukemia
  TGI: > 195 µM
A549 NSCLC
  TGI: > 200 µM
OVCAR-5 ovarian
  TGI: > 200 µM
HL-60(TB) leukemia
  TGI: > 186 µM
NCI-H460 lung
  TGI: > 200 µM
COLO 205 colon
  TGI: > 200 µM
NCI-H522 lung
  TGI: > 200 µM
HCC-2998 colon
  TGI: > 200 µM
NCI-H226 lung
  TGI: > 200 µM
MCF7 breast
  TGI: > 200 µM
U251 CNS
  TGI: > 200 µM
CAKI-1 renal
  TGI: > 200 µM

## O=C1C(=O)N(C2CCCCC2)C(=S)N1C1CCCCC1
KM12 colon
  TGI: > 100 µM
UACC-257 melanoma
  TGI: > 100 µM
EKVX NSCLC
  TGI: > 100 µM
SNB-19 CNS
  TGI: > 100 µM
CCRF-CEM leukemia
  TGI: > 100 µM
A549 NSCLC
  TGI: > 100 µM
MDA-N
  TGI: > 100 µM
ACHN renal
  TGI: > 100 µM
OVCAR-5 ovarian
  TGI: > 100 µM
HL-60(TB) leukemia
  TGI: > 100 µM
NCI-H460 lung
  TGI: > 100 µM
COLO 205 colon
  TGI: > 100 µM
NCI-H522 lung
  TGI: > 100 µM
HCC-2998 colon
  TGI: > 100 µM
NCI-H226 lung
  TGI: > 100 µM
U251 CNS
  TGI: > 100 µM
DU-145 prostate
  TGI: > 100 µM
CAKI-1 renal
  TGI: > 100 µM

## O=[N+]([O-])/C(C(Cl)=C(Cl)Cl)=C1/OCCS1
KM12 colon
  TGI: 94.3 µM
UACC-257 melanoma
  TGI: 67.3 µM
EKVX NSCLC
  TGI: > 100 µM
SNB-19 CNS
  TGI: > 100 µM
CCRF-CEM leukemia
  TGI: 35.4 µM
A549 NSCLC
  TGI: 55.6 µM
MDA-N
  TGI: > 100 µM
ACHN renal
  TGI: 42.2 µM
OVCAR-5 ovarian
  TGI: 92.6 µM
HL-60(TB) leukemia
  TGI: 37.6 µM
NCI-H460 lung
  TGI: 71.4 µM
COLO 205 colon
  TGI: 36.8 µM
NCI-H522 lung
  TGI: 79.7 µM
HCC-2998 colon
  TGI: > 100 µM
NCI-H226 lung
  TGI: 56.1 µM
MCF7 breast
  TGI: > 100 µM
U251 CNS
  TGI: > 100 µM
DU-145 prostate
  TGI: > 100 µM
CAKI-1 renal
  TGI: 72.7 µM

## CN1CN(c2ccccc2)C2(CCN(CCCC(=O)c3cccs3)CC2)C1=O
KM12 colon
  TGI: > 100 µM
UACC-257 melanoma
  TGI: 90.6 µM
EKVX NSCLC
  TGI: 80.9 µM
SNB-19 CNS
  TGI: > 100 µM
CCRF-CEM leukemia
  TGI: > 100 µM
A549 NSCLC
  TGI: > 100 µM
MDA-N
  TGI: > 100 µM
ACHN renal
  TGI: > 100 µM
OVCAR-5 ovarian
  TGI: 87.4 µM
HL-60(TB) leukemia
  TGI: > 100 µM
COLO 205 colon
  TGI: 47.7 µM
NCI-H522 lung
  TGI: > 100 µM
HCC-2998 colon
  TGI: 38.9 µM
NCI-H226 lung
  TGI: > 100 µM
MCF7 breast
  TGI: 72.6 µM
U251 CNS
  TGI: > 100 µM
DU-145 prostate
  TGI: > 100 µM
CAKI-1 renal
  TGI: > 100 µM

## CC(C)=CCC/C(C)=C/Cc1c(O)ccc2c1[nH]c1cc(O)c(C)cc12
KM12 colon
  TGI: > 25 µM
SNB-19 CNS
  TGI: > 25 µM
CCRF-CEM leukemia
  TGI: > 25 µM
A549 NSCLC
  TGI: > 25 µM
ACHN renal
  TGI: > 25 µM
OVCAR-5 ovarian
  TGI: > 25 µM
HL-60(TB) leukemia
  TGI: > 25 µM
NCI-H460 lung
  TGI: > 25 µM
COLO 205 colon
  TGI: > 25 µM
NCI-H522 lung
  TGI: > 25 µM
HCC-2998 colon
  TGI: > 25 µM
NCI-H226 lung
  TGI: > 25 µM
U251 CNS
  TGI: > 25 µM

## CC1=CCS(=O)(=O)C1C(O)C1=C(C)CCCC1(C)C (stereo not drawn)
KM12 colon
  TGI: > 100 µM
UACC-257 melanoma
  TGI: > 100 µM
EKVX NSCLC
  TGI: > 100 µM
SNB-19 CNS
  TGI: > 100 µM
CCRF-CEM leukemia
  TGI: > 100 µM
A549 NSCLC
  TGI: > 100 µM
MDA-N
  TGI: > 100 µM
ACHN renal
  TGI: > 100 µM
OVCAR-5 ovarian
  TGI: > 100 µM
HL-60(TB) leukemia
  TGI: > 100 µM
COLO 205 colon
  TGI: > 100 µM
NCI-H522 lung
  TGI: > 100 µM
HCC-2998 colon
  TGI: > 100 µM
NCI-H226 lung
  TGI: > 100 µM
MCF7 breast
  TGI: > 100 µM
U251 CNS
  TGI: > 100 µM
DU-145 prostate
  TGI: > 100 µM
CAKI-1 renal
  TGI: > 100 µM

## Cn1c(=O)nc2n(-c3ccc(Cl)cc3Cl)c3ccccc3nc-2c1=O
KM12 colon
  TGI: 15.8 µM
EKVX NSCLC
  TGI: 16.9 µM
SNB-19 CNS
  TGI: 26.5 µM
A549 NSCLC
  TGI: 13.3 µM
OVCAR-5 ovarian
  TGI: 49 µM
HL-60(TB) leukemia
  TGI: 27.8 µM
COLO 205 colon
  TGI: 8.73 µM
HCC-2998 colon
  TGI: 14.5 µM
U251 CNS
  TGI: 19 µM
CAKI-1 renal
  TGI: 13.2 µM

## OC(c1ccccc1)(c1ccccc1)c1cccnc1
KM12 colon
  TGI: > 100 µM
UACC-257 melanoma
  TGI: > 100 µM
EKVX NSCLC
  TGI: > 100 µM
SNB-19 CNS
  TGI: > 100 µM
CCRF-CEM leukemia
  TGI: > 100 µM
A549 NSCLC
  TGI: > 100 µM
ACHN renal
  TGI: > 100 µM
OVCAR-5 ovarian
  TGI: > 100 µM
NCI-H460 lung
  TGI: > 100 µM
COLO 205 colon
  TGI: > 100 µM
HCC-2998 colon
  TGI: > 100 µM
NCI-H226 lung
  TGI: > 100 µM
U251 CNS
  TGI: > 100 µM
CAKI-1 renal
  TGI: > 100 µM

## O=C(CC(C(=O)c1ccsc1)c1ccccc1)c1cccs1 (stereo not drawn)
KM12 colon
  TGI: 88.6 µM
UACC-257 melanoma
  TGI: > 100 µM
EKVX NSCLC
  TGI: > 100 µM
CCRF-CEM leukemia
  TGI: > 100 µM
MDA-N
  TGI: > 100 µM
ACHN renal
  TGI: > 100 µM
OVCAR-5 ovarian
  TGI: > 100 µM
HL-60(TB) leukemia
  TGI: > 100 µM
NCI-H460 lung
  TGI: > 100 µM
COLO 205 colon
  TGI: > 100 µM
NCI-H522 lung
  TGI: > 100 µM
HCC-2998 colon
  TGI: > 100 µM
NCI-H226 lung
  TGI: > 100 µM
MCF7 breast
  TGI: 79.6 µM
U251 CNS
  TGI: > 100 µM
DU-145 prostate
  TGI: > 100 µM
CAKI-1 renal
  TGI: > 100 µM

## Cc1ccc(NC(=O)CC(=O)n2nc(C)c(N=Nc3ccc(S(=O)(=O)CCOS(=O)(=O)O)cc3)c2C)cc1
KM12 colon
  TGI: > 100 µM
UACC-257 melanoma
  TGI: > 100 µM
EKVX NSCLC
  TGI: > 100 µM
SNB-19 CNS
  TGI: > 100 µM
CCRF-CEM leukemia
  TGI: > 100 µM
A549 NSCLC
  TGI: > 100 µM
MDA-N
  TGI: > 100 µM
ACHN renal
  TGI: > 100 µM
OVCAR-5 ovarian
  TGI: > 100 µM
HL-60(TB) leukemia
  TGI: > 100 µM
NCI-H460 lung
  TGI: > 100 µM
COLO 205 colon
  TGI: > 100 µM
NCI-H522 lung
  TGI: > 100 µM
HCC-2998 colon
  TGI: > 100 µM
NCI-H226 lung
  TGI: > 100 µM
MCF7 breast
  TGI: > 100 µM
U251 CNS
  TGI: > 100 µM
DU-145 prostate
  TGI: > 100 µM

## CCOC(=O)CN1CCSC1=NC#N
KM12 colon
  TGI: > 100 µM
UACC-257 melanoma
  TGI: > 100 µM
EKVX NSCLC
  TGI: > 100 µM
SNB-19 CNS
  TGI: > 100 µM
CCRF-CEM leukemia
  TGI: > 100 µM
A549 NSCLC
  TGI: > 100 µM
OVCAR-5 ovarian
  TGI: > 100 µM
HL-60(TB) leukemia
  TGI: > 100 µM
NCI-H460 lung
  TGI: > 31.6 µM
COLO 205 colon
  TGI: > 100 µM
NCI-H522 lung
  TGI: > 100 µM
HCC-2998 colon
  TGI: > 100 µM
NCI-H226 lung
  TGI: > 100 µM
MCF7 breast
  TGI: > 100 µM
U251 CNS
  TGI: > 100 µM
CAKI-1 renal
  TGI: > 100 µM

## COc1cc2c(c(OC)c1OC)C(=O)[C@H]1OC(=O)N[C@@H]21
KM12 colon
  TGI: > 100 µM
UACC-257 melanoma
  TGI: > 100 µM
SNB-19 CNS
  TGI: > 100 µM
CCRF-CEM leukemia
  TGI: > 100 µM
A549 NSCLC
  TGI: > 100 µM
ACHN renal
  TGI: > 100 µM
OVCAR-5 ovarian
  TGI: > 100 µM
HL-60(TB) leukemia
  TGI: > 100 µM
COLO 205 colon
  TGI: > 100 µM
HCC-2998 colon
  TGI: > 100 µM
NCI-H226 lung
  TGI: > 100 µM
MCF7 breast
  TGI: > 100 µM
U251 CNS
  TGI: > 100 µM
DU-145 prostate
  TGI: > 100 µM
CAKI-1 renal
  TGI: > 100 µM

## C=C(N=[N+]=[N-])c1cn(C2CC(O)C(CO)O2)c(=O)[nH]c1=O (stereo not drawn)
KM12 colon
  TGI: > 100 µM
EKVX NSCLC
  TGI: > 100 µM
SNB-19 CNS
  TGI: > 100 µM
CCRF-CEM leukemia
  TGI: > 100 µM
A549 NSCLC
  TGI: > 100 µM
ACHN renal
  TGI: > 100 µM
OVCAR-5 ovarian
  TGI: > 100 µM
HL-60(TB) leukemia
  TGI: > 100 µM
NCI-H460 lung
  TGI: > 100 µM
COLO 205 colon
  TGI: > 100 µM
NCI-H522 lung
  TGI: > 100 µM
HCC-2998 colon
  TGI: > 100 µM
NCI-H226 lung
  TGI: > 100 µM
U251 CNS
  TGI: > 100 µM
CAKI-1 renal
  TGI: > 100 µM

## O=C(Nc1ccc([N+](=O)[O-])cc1)C(=O)C(C(=O)c1ccccc1F)C1OC(=O)c2ccccc21 (stereo not drawn)
KM12 colon
  TGI: > 100 µM
UACC-257 melanoma
  TGI: > 100 µM
EKVX NSCLC
  TGI: > 100 µM
SNB-19 CNS
  TGI: > 100 µM
CCRF-CEM leukemia
  TGI: 58.4 µM
A549 NSCLC
  TGI: > 100 µM
ACHN renal
  TGI: > 100 µM
OVCAR-5 ovarian
  TGI: > 100 µM
HL-60(TB) leukemia
  TGI: 66.1 µM
NCI-H460 lung
  TGI: > 100 µM
COLO 205 colon
  TGI: 68 µM
NCI-H522 lung
  TGI: 41.6 µM
HCC-2998 colon
  TGI: 41.4 µM
NCI-H226 lung
  TGI: 59.8 µM
U251 CNS
  TGI: 39.9 µM
CAKI-1 renal
  TGI: > 100 µM
